# Source: ChEMBL document CHEMBL1134443, “Sorbitol dehydrogenase inhibitors (SDIs): a new potent, enantiomeric SDI, 4-[2-1R-hydroxy-ethyl)-pyrimidin-4-yl]piperazine-1-sulfonic acid dimethylamide” (J Med Chem, 2001)
# Experiments:
# Rattus norvegicus = test: In vivo inhibition of diabetic rat sciatic nerve fructose accumulation; format: functional
# Sorbitol dehydrogenase = target: T1, Sorbitol dehydrogenase (Homo sapiens, UniProt Q00796); test: In vitro inhibitory activity against human SDH
# T1 sequence (Q00796 whole entry): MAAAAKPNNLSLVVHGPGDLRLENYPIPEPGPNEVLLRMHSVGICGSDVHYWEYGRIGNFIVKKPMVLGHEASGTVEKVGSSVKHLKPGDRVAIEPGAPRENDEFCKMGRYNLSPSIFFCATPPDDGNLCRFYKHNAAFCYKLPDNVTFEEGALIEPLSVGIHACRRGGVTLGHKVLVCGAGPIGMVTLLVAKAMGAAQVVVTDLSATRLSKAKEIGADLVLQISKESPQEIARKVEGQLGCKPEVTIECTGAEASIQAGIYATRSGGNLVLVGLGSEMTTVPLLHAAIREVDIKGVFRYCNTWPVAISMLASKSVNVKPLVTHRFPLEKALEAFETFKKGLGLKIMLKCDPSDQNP
IC50 (Sorbitol dehydrogenase) [nM],SMILES,ED50 (Rattus norvegicus) [mg/kg]
173,CC(O)c1nccc(N2CCN(S(=O)(=O)N(C)C)CC2)n1 (stereo not drawn),2.4
486,CO[C@@H](C)c1nccc(N2CCN(S(=O)(=O)N(C)C)CC2)n1,9
27,C[C@@H](O)c1nccc(N2CCN(S(=O)(=O)N(C)C)CC2)n1,1.6
246,CN(C)S(=O)(=O)N1CCN(c2ccnc(CO)n2)CC1,14.1
